Data on 17 compounds can be found in ChEMBL document CHEMBL5260809, “Isoxazole ring as a useful scaffold in a search for new therapeutic agents” (Eur J Med Chem, 2017).

The nature of data set [1]: Induction of sodium-22 influx in human TE-671 cells. Format: functional, cell-based.
The nature of data set [2]: Selectivity index, ratio of CC50 for human HeLa cells to IC50 for Coxsackievirus B3 isolate 97-927. Format: toxicity. The conditions noted are these: read-out: Ratio CC50/IC50.
Data set [3] is described as follows: Selectivity index, ratio of CC50 for human HeLa cells to IC50 for Human rhinovirus 2. Format: toxicity. The conditions noted are these: read-out: Ratio CC50/IC50.
The species named for data set [4] is Rattus norvegicus. Nature of the data set: Anticonvulsant activity in rat maximal electroshock seizure model. Format: functional.
Data set [5] can be described thus: Toxicity in rat. The following applies: in vivo.
In a further data set the test system is Escherichia coli. Description: Antibacterial activity against Escherichia coli assessed as zone of inhibition at 50 ug/ml by agar disc diffusion method. Format: functional. The following applies: read-out: IZ. (Agar diffusion results depend on both activity and mobility in agar.)
Another data set has as its system Staphylococcus aureus. Nature of the data set: Antibacterial activity against Staphylococcus aureus assessed as zone of inhibition at 50 ug/ml by agar disc diffusion method. Format: functional. The following applies: read-out: IZ.
For another data set, the system named is MDA-MB-231. Description: Antimigratory activity against human MDA-MB-231 cells. Format: functional, cell-based.
Another data set concerns Coxsackievirus B3. Description: Antiviral activity against Coxsackievirus B3. Format: functional, organism-based. The following applies: Enterovirus B.
The next data set is filed under the species Mus musculus. Nature of the data set: Antithrombotic activity in Swiss mouse model of collagen and adrenaline-induced thrombosis assessed as increase in bleeding time. Format: functional.
Data set [6] is filed under the species Rattus norvegicus. Description: Protective index, ratio of TD50 for rat to ED50 for anticonvulsant activity in rat. Format: functional.
Data set [7] addresses T1, Muscarinic acetylcholine receptor M1 (Rattus norvegicus, UniProt P08482).
T1 sequence (P08482 whole entry): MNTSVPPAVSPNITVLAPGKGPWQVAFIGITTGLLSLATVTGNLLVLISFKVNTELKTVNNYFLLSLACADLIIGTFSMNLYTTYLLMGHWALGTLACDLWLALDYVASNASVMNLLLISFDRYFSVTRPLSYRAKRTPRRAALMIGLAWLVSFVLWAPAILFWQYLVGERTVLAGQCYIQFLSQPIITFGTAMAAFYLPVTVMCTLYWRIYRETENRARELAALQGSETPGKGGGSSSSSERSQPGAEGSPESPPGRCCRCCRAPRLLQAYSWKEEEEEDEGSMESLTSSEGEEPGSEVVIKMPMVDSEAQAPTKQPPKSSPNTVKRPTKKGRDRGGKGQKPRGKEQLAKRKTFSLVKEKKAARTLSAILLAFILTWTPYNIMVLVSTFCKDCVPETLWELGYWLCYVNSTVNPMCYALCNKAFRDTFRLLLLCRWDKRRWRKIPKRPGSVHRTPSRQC
Nature of the data set: Agonist activity at rat M1 muscarinic receptor.

In data set [8] the target is T2, Muscarinic acetylcholine receptor M2 (Rattus norvegicus, UniProt P10980).
T2 sequence (P10980 whole entry): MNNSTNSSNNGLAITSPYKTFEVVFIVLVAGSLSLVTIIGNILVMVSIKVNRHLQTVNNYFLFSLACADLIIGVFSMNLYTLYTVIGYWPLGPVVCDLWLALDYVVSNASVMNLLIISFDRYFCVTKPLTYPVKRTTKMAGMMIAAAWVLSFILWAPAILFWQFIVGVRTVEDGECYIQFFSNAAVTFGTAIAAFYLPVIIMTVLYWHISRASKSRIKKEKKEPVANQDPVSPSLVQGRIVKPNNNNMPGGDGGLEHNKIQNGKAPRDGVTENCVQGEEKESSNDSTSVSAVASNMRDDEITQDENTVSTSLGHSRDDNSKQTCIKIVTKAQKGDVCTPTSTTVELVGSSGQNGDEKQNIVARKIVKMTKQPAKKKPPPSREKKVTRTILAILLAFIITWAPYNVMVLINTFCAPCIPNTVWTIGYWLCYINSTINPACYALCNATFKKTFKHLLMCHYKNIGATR
Nature of the data set: Agonist activity at rat M2 muscarinic receptor.

Data set [9] deals with Human immunodeficiency virus 1. Description: Antiviral activity against HIV-1 assessed as reduction in multinucleated cells production at 25 ug/ml. Format: functional. More on the design: scale not given: the % may be the effect or the level left. The following applies: dose 25 µg/ml.

Structures are written as SMILES. ≈ marks a conversion by molar mass, not a printed value.

With `Cc1cc(C2CC3CCC2N3)on1` (stereo not given), the EC50 (commonly the concentration at which the effect is half-maximal) in data set [1] amounted to 2600 nM. On to `Cc1cc(CCCOc2ccc(-c3cccc(F)c3)cc2)on1`, for which the selectivity ratio was determined as 2.9 in data set [2] and 230 in data set [3]. On to `Cc1cc(C(=O)Nc2c(C)cccc2C)no1`, for which, in the data set filed under Rattus norvegicus [4], the ED50 (usually the dose that gives a 50% effect, or the effect in half of the subjects) is 5.5 mg/kg. In addition, the TD50 (as a rule, the 50% point of the dose-response relation for the toxic effect studied) in data set [5] is over 500 mg/kg. Consider `Cc1cc(CCCOc2ccc(-c3ccccc3C)cc2)on1`, for which the selectivity ratio in data set [2] was determined as 2.6; in [3], 57.5.

As to `Cc1cc(NC(=O)c2c(C)cccc2C)on1`, it took a dose of 8.9 mg/kg to reach the 50% effect level in the data set filed under Rattus norvegicus [4] (ED50). This compound also yielded a TD50 in data set [5] of over 500 mg/kg. Take `O=C(N[C@H](CO)[C@H](O)c1ccc([N+](=O)[O-])cc1)C(Cl)Cl` [CHLORAMPHENICOL]: the zone of inhibition at 50 µg/mL came to 21 mm in the data set on Escherichia coli and 23 mm in the data set on Staphylococcus aureus. As to `CCc1cc(-c2oncc2-c2ccc(Br)cc2)c(O)cc1OC`, in the data set on MDA-MB-231, the midpoint of inhibition, the IC50, lay at 50 nM.

For the compound `Cc1cn(Cc2cc([C@@H](Cc3ccccc3)NC(=O)OC(C)(C)C)no2)c(=O)n(C(=O)c2ccccc2)c1=O`, a half-maximal effect in the data set on Coxsackievirus B3 (EC50) was put at 10.6 µg/mL (≈ 20 µM). `Clc1ccc([C@H]2CC3CCC2N3)cn1` (stereo not given in full): the EC50 in data set [1] is 520 nM. Consider `N#Cc1ccc(CN(Cc2cc(-c3ccccc3Cl)on2)C(CCCNC(=N)N)C(N)=O)cc1` (stereo not given), for which, in the data set filed under Mus musculus, the Activity is reported as 87.5%. As for `Cc1cc(NC2=CC(=O)C(C(=O)OC(C)(C)C)C(C)C2)no1` (stereo not given), the Ratio in the data set filed under Rattus norvegicus [6] was over 49.6.

In the case of `Cc1cc(CCCOc2ccc(-c3ccc(F)cc3)cc2)on1`, the selectivity ratio was over 37.3 in data set [2] and over 5560 in [3]. As to `C#CCOc1noc2c1CNCCC2C` (stereo not given), the EC50 in [7] was 1300 nM; in [8] it was over 51000 nM.

As to `O=C(CBr)c1cc(-c2ccccc2)no1`, the Activity in data set [9] is recorded as 95%. Consider `CCc1cc(-c2oncc2-c2ccc(OC)cc2)c(O)cc1OC`, for which the IC50 (commonly the point on the concentration scale where inhibition reaches its midpoint) in the data set with MDA-MB-231 was 150 nM.

`CCOC(=O)C1C(c2c(OCc3ccccc3)c(Br)cc3c(Cl)c(Cl)c(=O)oc23)=NOC1c1ccc(C(F)(F)F)cc1` (stereo not given): the zone of inhibition at 50 µg/mL in the data set with Escherichia coli worked out at 20 mm; in the data set with Staphylococcus aureus, 24 mm. In the data set with Coxsackievirus B3, `NC(=O)c1ncn([C@@H]2O[C@H](CO)[C@@H](O)[C@H]2O)n1` [RIBAVIRIN] registered an EC50 of 92.5 µg/mL (≈ 379 µM).
